Assay results published in patent US10039753B2, “Imidazo[4,5-c]quinoline and imidazo[4,5-c][1,5]naphthyridine derivatives as LRRK2 inhibitors” (Pfizer Inc., priority 2015, dated 2018).
Structures can show the parent of a compound that is named as a salt.

Tests used:
[1] = biological target: T1, GST-tagged truncated LRRK2 (Homo sapiens, UniProt Q5S007); experiment: LRRK2 Assay, Format 1 (Lantha Screen), WT; format: biochemical; conditions: Format 1, wild-type LRRK2; geometric mean of 2-4 determinations unless footnoted (a: ≥5 determinations; b: single determination; c: determined on trifluoroacetate salt)
T1 construct: GST-tagged truncated LRRK2 from Invitrogen (Cat # PV4874); GST; purchased Invitrogen PV4874
T1 sequence (Q5S007 970-2527 limits assumed): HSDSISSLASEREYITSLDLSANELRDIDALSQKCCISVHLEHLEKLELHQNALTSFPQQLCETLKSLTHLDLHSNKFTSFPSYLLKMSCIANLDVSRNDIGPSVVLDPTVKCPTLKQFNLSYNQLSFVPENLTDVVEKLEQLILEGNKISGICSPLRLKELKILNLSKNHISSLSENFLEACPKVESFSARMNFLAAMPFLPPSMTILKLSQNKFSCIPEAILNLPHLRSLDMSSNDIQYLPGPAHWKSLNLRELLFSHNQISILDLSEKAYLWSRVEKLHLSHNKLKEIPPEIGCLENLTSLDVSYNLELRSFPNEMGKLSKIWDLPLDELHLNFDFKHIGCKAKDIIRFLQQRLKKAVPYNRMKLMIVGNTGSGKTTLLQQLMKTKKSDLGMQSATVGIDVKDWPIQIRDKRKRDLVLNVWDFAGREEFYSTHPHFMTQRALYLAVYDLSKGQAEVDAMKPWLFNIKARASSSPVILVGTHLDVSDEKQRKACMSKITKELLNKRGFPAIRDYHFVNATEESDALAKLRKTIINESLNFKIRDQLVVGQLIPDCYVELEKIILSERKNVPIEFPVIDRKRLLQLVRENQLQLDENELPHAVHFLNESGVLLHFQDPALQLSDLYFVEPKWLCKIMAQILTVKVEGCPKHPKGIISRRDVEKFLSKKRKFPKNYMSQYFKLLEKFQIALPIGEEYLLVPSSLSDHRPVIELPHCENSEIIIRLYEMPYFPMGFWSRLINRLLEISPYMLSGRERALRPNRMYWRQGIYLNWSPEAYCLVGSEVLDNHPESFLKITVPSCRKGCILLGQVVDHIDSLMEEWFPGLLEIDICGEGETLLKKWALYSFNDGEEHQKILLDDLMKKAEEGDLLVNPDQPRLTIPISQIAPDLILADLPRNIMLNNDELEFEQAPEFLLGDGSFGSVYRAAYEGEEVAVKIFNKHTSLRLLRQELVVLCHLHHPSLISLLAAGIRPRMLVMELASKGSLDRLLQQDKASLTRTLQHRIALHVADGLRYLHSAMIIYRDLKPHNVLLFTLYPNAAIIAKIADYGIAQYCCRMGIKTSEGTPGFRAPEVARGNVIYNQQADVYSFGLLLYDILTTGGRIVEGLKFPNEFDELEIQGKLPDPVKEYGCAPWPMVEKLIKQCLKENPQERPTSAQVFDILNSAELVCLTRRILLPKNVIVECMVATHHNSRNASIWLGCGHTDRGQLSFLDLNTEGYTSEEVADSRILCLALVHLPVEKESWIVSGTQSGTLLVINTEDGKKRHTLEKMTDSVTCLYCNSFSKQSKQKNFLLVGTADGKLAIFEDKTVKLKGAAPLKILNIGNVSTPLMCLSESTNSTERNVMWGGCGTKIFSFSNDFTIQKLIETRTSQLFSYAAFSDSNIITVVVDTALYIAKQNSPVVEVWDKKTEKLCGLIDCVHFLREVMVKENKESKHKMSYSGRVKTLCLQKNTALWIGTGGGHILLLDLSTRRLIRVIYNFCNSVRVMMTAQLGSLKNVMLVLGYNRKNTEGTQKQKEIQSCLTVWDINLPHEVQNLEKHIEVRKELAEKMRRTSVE
Description: LRRK2 kinase activity was measured using Lantha Screen technology from Invitrogen. GST-tagged truncated LRRK2 from Invitrogen (Cat # PV4874) was incubated with a fluorescein-labeled peptide substrate based upon ezrin/radixin/moesin (ERM), also known as LRRKtide (Invitrogen cat # PR8976A), in the presence of a dose response of compound. Upon completion, the assay was stopped and detected with a terbium labeled anti-phospho-ERM antibody (Invitrogen, cat # PR8975A). […] Aliquots (3.5 μL) of the 100% DMSO dose response were mixed with 46.5 μL water then 1 μL of this mixture was added to the 3 μL substrate mix in the 384-well plate. The kinase reaction was started with 3 μL of a working solution of LRRK2 enzyme at a concentration of 4 μg/mL. […] The reaction was allowed to progress at room temperature for two hours and then stopped with the addition of 7 μL of detection buffer (20 mM Tris pH 7.6, 0.01% NP-40, 0.02% NaN3, 6 mM EDTA with 2 nM terbium labeled anti-phospho-ERM).

mutant G2019S LRRK2 [2] = biological target: T2, mutant G2019S LRRK2 (Homo sapiens, UniProt Q5S007, G2019S); experiment: LRRK2 Assay, Format 1 (Lantha Screen), G2019S mutant
T2 sequence (Q5S007 970-2527 G2019S limits assumed): as the sequence (Q5S007 970-2527 limits assumed) above, with G1050S counted along it
Description: All final concentrations of substrate ATP and enzyme were the same.

[3] = biological target: T1, GST-tagged truncated LRRK2; experiment: LRRK2 Assay, Format 2 (Lantha Screen), WT; format: biochemical; conditions: geometric mean of 2-4 determinations unless otherwise indicated (a: >=5; b: single determination)
mutant G2019S LRRK2 [4] = biological target: T2, mutant G2019S LRRK2; experiment: LRRK2 Assay, Format 2 (Lantha Screen), G2019S mutant; format: biochemical; set-up: purchased Invitrogen PV4881; conditions: geometric mean of 2-4 determinations unless otherwise indicated (a: >=5; b: single determination); read-out: LRRK2, Format 2 G2019S IC50

| IC50 [1] [nM] | IC50 (mutant G2019S LRRK2 [2]) [nM] | IC50 [3] [nM] | IC50 (mutant G2019S LRRK2 [4]) [nM] | SMILES |
| --- | --- | --- | --- | --- |
| 187 | 257 |  |  | Cc1nc2cnc3ccccc3c2n1[C@H]1CCO[C@@H](C)C1 (racemic) [Example 15, 2-methyl-1-(cis-2-methyltetrahydro-2H-pyran-4-yl)-1H-imidazo[4,5-c]quinoline] |
|  |  | 9.15 | 11.1 | CC(F)(F)Cn1c(Cc2cscn2)nc2cnc3ccc(C#N)cc3c21 [Example 224, 1-(2,2-difluoropropyl)-2-(1,3-thiazol-4-ylmethyl)-1H-imidazo[4,5-c]quinoline-8-carbonitrile] |
|  |  | 7.23 | 8.7 | CC(F)(F)Cn1c(Cn2ccc(C3CC3)n2)nc2cnc3ccc(C#N)cc3c21 [Example 225, 2-[(3-cyclopropyl-1H-pyrazol-1-yl)methyl]-1-(2,2-difluoropropyl)-1H-imidazo[4,5-c]quinoline-8-carbonitrile] |
|  |  | 4.54 | 5.82 | Cc1nn2cc(Cc3nc4cnc5ccc(C#N)cc5c4n3CC(C)(F)F)nc2s1 [Example 226, 1-(2,2-difluoropropyl)-2-[(2-methylimidazo[2,1-b][1,3,4]thiadiazol-6-yl)methyl]-1H-imidazo[4,5-c]quinoline-8-carbonitrile] |
|  |  | 46.7 | 69.4 | Cc1cc(Cc2nc3cnc4ccc(C#N)cc4c3n2CC(F)F)no1 [Example 228, 1-(2,2-difluoroethyl)-2-[(5-methyl-1,2-oxazol-3-yl)methyl]-1H-imidazo[4,5-c]quinoline-8-carbonitrile] |
|  |  | 9.71 | 9.37 | C[C@@H]1C[C@H](n2c(Cc3cnco3)nc3cnc4ccc(C#N)cc4c32)CCO1 [Example 229, 1-[(2R,4R)-2-methyltetrahydro-2H-pyran-4-yl]-2-(1,3-oxazol-5-ylmethyl)-1H-imidazo[4,5-c]quinoline-8-carbonitrile, formate salt] |
|  |  | 11.6 | 8.48 | Cc1nc(Cc2nc3cnc4ccc(C#N)cc4c3n2[C@@H]2CCO[C@H](C)C2)c(C)o1 [Example 230, 2-[(2,5-dimethyl-1,3-oxazol-4-yl)methyl]-1-[(2R,4R)-2-methyltetrahydro-2H-pyran-4-yl]-1H-imidazo[4,5-c]quinoline-8-carbonitrile, formate salt] |
|  |  | 14.3 | 11.9 | Cc1ccn(Cc2nc3cnc4ccc(C#N)cc4c3n2[C@@H]2CCO[C@H](C)C2)n1 [Example 233, 2-[(3-methyl-1H-pyrazol-1-yl)methyl]-1-[(2R,4R)-2-methyltetrahydro-2H-pyran-4-yl]-1H-imidazo[4,5-c]quinoline-8-carbonitrile, formate salt] |
|  |  | 10.7 | 9.5 | Cc1nc(Cc2nc3cnc4ccc(C#N)cc4c3n2[C@@H]2CCO[C@H](C)C2)cs1 [Example 234, 1-[(2R,4R)-2-methyltetrahydro-2H-pyran-4-yl]-2-[(2-methyl-1,3-thiazol-4-yl)methyl]-1H-imidazo[4,5-c]quinoline-8-carbonitrile, formate salt] |
|  |  | 9.74 | 10.8 | Cc1cc(Cc2nc3cnc4ccc(C#N)cc4c3n2C2CCOC(C)(C)C2)no1 (stereo not shown) [Example 239, 1-(2,2-dimethyltetrahydro-2H-pyran-4-yl)-2-[(5-methyl-1,2-oxazol-3-yl)methyl]-1H-imidazo[4,5-c]quinoline-8-carbonitrile, formate salt] |
|  |  | 51.8 | 35.7 | Cc1cc(Cc2nc3cnc4ccc(C#N)cc4c3n2[C@H]2CC[C@H](O)CC2)no1 [Example 240, 1-(trans-4-hydroxycyclohexyl)-2-[(5-methyl-1,2-oxazol-3-yl)methyl]-1H-imidazo[4,5-c]quinoline-8-carbonitrile, formate salt] |
|  |  | 79.4 | 89.7 | Cc1cc(Cc2nc3cnc4ccc(C#N)cc4c3n2C2CCCC(F)(F)C2)no1 (stereo not shown) [Example 244, 1-(3,3-difluorocyclohexyl)-2-[(5-methyl-1,2-oxazol-3-yl)methyl]-1H-imidazo[4,5-c]quinoline-8-carbonitrile, formate salt] |
|  |  | 65 | 86.5 | Cc1cc(Cc2nc3cnc4ccc(C#N)cc4c3n2C2CCC(F)(F)C2)no1 (stereo not shown) [Example 246, 1-(3,3-difluorocyclopentyl)-2-[(5-methyl-1,2-oxazol-3-yl)methyl]-1H-imidazo[4,5-c]quinoline-8-carbonitrile, formate salt] |
|  |  | 10.4 | 11 | C[C@@H]1C[C@H](n2c(Cc3ccccn3)nc3cnc4ccc(Cl)cc4c32)CCO1 [Example 250, 8-chloro-1-[(2R,4R)-2-methyltetrahydro-2H-pyran-4-yl]-2-(pyridin-2-ylmethyl)-1H-imidazo[4,5-c]quinoline, formate salt] |

The remaining lines, values behind:

| SMILES | IC50 [1] [nM] | IC50 (mutant G2019S LRRK2 [2]) [nM] | IC50 [3] [nM] | IC50 (mutant G2019S LRRK2 [4]) [nM] |
| --- | --- | --- | --- | --- |
| C[C@@H]1C[C@H](n2c(Cc3ccncn3)nc3cnc4ccc(C#N)cc4c32)CCO1 [Example 222, 1-[(2R,4R)-2-methyltetrahydro-2H-pyran-4-yl]-2-(pyrimidin-4-ylmethyl)-1H-imidazo[4,5-c]quinoline-8-carbonitrile] |  |  | 9.08 | 8.59 |
| C[C@@H]1C[C@H](n2c(Cc3ccccn3)nc3cnc4ccc(C#N)cc4c32)CCO1 [Example 223, 1-[(2R,4R)-2-methyltetrahydro-2H-pyran-4-yl]-2-(pyridin-2-ylmethyl)-1H-imidazo[4,5-c]quinoline-8-carbonitrile] |  |  | 9.69 | 9.45 |
| CC(F)(F)Cn1c(Cn2cc(C(F)(F)F)cn2)nc2cnc3ccc(C#N)cc3c21 [Example 227, 1-(2,2-difluoropropyl)-2-{[4-(trifluoromethyl)-1H-pyrazol-1-yl]methyl}-1H-imidazo[4,5-c]quinoline-8-carbonitrile] |  |  | 9.06 | 10.8 |
| C[C@@H]1C[C@H](n2c(Cc3cncs3)nc3cnc4ccc(C#N)cc4c32)CCO1 [Example 231, 1-[(2R,4R)-2-methyltetrahydro-2H-pyran-4-yl]-2-(1,3-thiazol-5-ylmethyl)-1H-imidazo[4,5-c]quinoline-8-carbonitrile, formate salt] |  |  | 24.9 | 26.6 |
| Cc1ccc(Cc2nc3cnc4ccc(C#N)cc4c3n2[C@@H]2CCO[C@H](C)C2)nc1 [Example 232, 2-[(5-methylpyridin-2-yl)methyl]-1-[(2R,4R)-2-methyltetrahydro-2H-pyran-4-yl]-1H-imidazo[4,5-c]quinoline-8-carbonitrile] |  |  | 8.48 | 7.26 |
| C[C@@H]1C[C@H](n2c(Cc3cn(C)cn3)nc3cnc4ccc(C#N)cc4c32)CCO1 [Example 235, 2-[(1-methyl-1H-imidazol-4-yl)methyl]-1-[(2R,4R)-2-methyltetrahydro-2H-pyran-4-yl]-1H-imidazo[4,5-c]quinoline-8-carbonitrile, formate salt] |  |  | 10.6 | 9.43 |
| C[C@@H]1C[C@H](n2c(C(F)(F)c3ccccn3)nc3cnc4ccc(C#N)cc4c32)CCO1 [Example 236, 2-[difluoro(pyridin-2-yl)methyl]-1-[(2R,4R)-2-methyltetrahydro-2H-pyran-4-yl]-1H-imidazo[4,5-c]quinoline-8-carbonitrile, formate salt] |  |  | 13 | 11.9 |
| Cc1cc(Cc2nc3cnc4ccc(C#N)cc4c3n2[C@H]2CC[C@@H](F)C2)no1 [Example 241, 1-[(1S,3R)-3-fluorocyclopentyl]-2-[(5-methyl-1,2-oxazol-3-yl)methyl]-1H-imidazo[4,5-c]quinoline-8-carbonitrile, formate salt] |  |  | 29.3 | 33.5 |
| Cc1cc(Cc2nc3cnc4ccc(C#N)cc4c3n2[C@@H](C)CF)no1 [Example 243, 1-[(2S)-1-fluoropropan-2-yl]-2-[(5-methyl-1,2-oxazol-3-yl)methyl]-1H-imidazo[4,5-c]quinoline-8-carbonitrile, formate salt] |  |  | 48.7 | 85.9 |
| Cc1cc(Cc2nc3cnc4ccc(C#N)cc4c3n2[C@H]2CC[C@](C)(O)CC2)no1 [Example 247, 1-(trans-4-hydroxy-4-methylcyclohexyl)-2-[(5-methyl-1,2-oxazol-3-yl)methyl]-1H-imidazo[4,5-c]quinoline-8-carbonitrile, formate salt] |  |  | 85.1 | 59.5 |
| Cc1cc(Cc2nc3cnc4ccc(C#N)cc4c3n2CC(C)(F)F)no1 [Example 248, 1-(2,2-difluoropropyl)-2-[(5-methyl-1,2-oxazol-3-yl)methyl]-1H-imidazo[4,5-c]quinoline-8-carbonitrile] |  |  | 15 | 17.7 |
| C[C@@H]1C[C@H](n2c(Cc3cnccn3)nc3cnc4ccc(Cl)cc4c32)CCO1 [Example 249, 8-chloro-1-[(2R,4R)-2-methyltetrahydro-2H-pyran-4-yl]-2-(pyrazin-2-ylmethyl)-1H-imidazo[4,5-c]quinoline, trifluoroacetate salt] |  |  | 16.9 | 18.6 |
